{
  "source": "patent US6825340B2",
  "about": "“Methods and reagents for inactivating ribonucleases” (Ambion, Inc., priority 1998, dated 2004)",
  "key": {"[1]": {"system": "RNase mixture (RNase A, RNase 1, RNase T1)", "experiment": "Isotopic RNase inactivation assay (radioactive RNA probe, acrylamide gel)", "assay_type": "biochemical, human, E. coli and a fungus", "conditions": "20 mM DTT, 60° C. for 20 minutes", "procedure": "FIG. 1. DTT-heat inactivation of different RNase concentrations. The RNase mixture was made to different concentrations in 20 mM DTT: 1 mM sodium citrate (pH 6.4). The RNase samples were incubated at 60° C. for 20 minutes. A radioactive RNA probe was added to the treated RNase samples, incubated at 37° C. for 16 hours, fractionated in a denaturing 5% acrylamide gel and exposed to x-ray film.\nThe inventors routinely perform assays on RNA designed to assess RNase activity in a sample. Two different assays are typically used for the detection of ribonuclease activity, non-isotopic and isotopic. Each assay generates similar data with regard to the sensitivity of detection. In both assays, the inactivation process is typically performed on a mixture of three different ribonucleases: RNase A, RNase 1, and RNase T1. Each ribonuclease is purified from a different species: […], E. coli and a fungus, respectively. The three RNases are very different from each other in their origin, substrate specificity and protein sequence. In this way, the inactivation process can test three completely different but well characterized ribonucleases. The standard stock RNase mixture employed in the following examples is prepared by combining 1 μl RNase 1 (100 U/μl; Ambion), 1 μl RNase cocktail (RNase A, 0.5 U/μl; RNase T1, 20 U/μl, Ambion) and 98 μl water. […]"}, "[2]": {"system": "AMV reverse transcriptase", "experiment": "Reverse transcription reaction (RETROscript kit), dCTP[α-32P] incorporation", "assay_type": "biochemical", "conditions": "20 mM reducing reagent", "procedure": "(§1) FIG. 2. […] Reverse transcriptions were performed using the RETROscript™ kit (Ambion, Inc.). Mouse total RNA in DEPC-treated water was reverse transcribed with either MMLV or AMV reverse transcriptase in the presence or absence of 20 mM DTT. dCTP[α^32P] was included in the reactions to measure the efficiency of reverse transcription. Following incubation at 42° C. for 1 h, 5 μl of each reaction was subjected to TCA precipitation to measure the amount of dCTP[α^32P] incorporated into cDNA by reverse transcription.\n(§2) The reverse transcription reactions were performed using the RETROscript™ kit (Ambion, Inc.). The following were assembled with or without 20 mM of the reducing reagents in a final volume of 19 μl: dNTPs (0.5 mM each), oligo dT (5 μM), 0.4 μl dCTP[α-^32p] (3000 Ci/mmol), 10 mM Tris-HCl (pH 8.3): 50 mM KCl: 1.5 mM MgCl2, mouse brain total RNA (4 μg). The reaction mixtures were incubated at 65° C. for 10 minutes. 1 μl (100 units) of AMV or MMLV reverse transcriptase were added and then the reactions were incubated at 42° C. for 1 hour. Reverse transcription by either enzyme was not inhibited by DTT (FIG. 2) or by DTE or β-mercaptoethanol."}, "[3]": {"target": "T1, MMLV reverse transcriptase (Moloney murine leukemia virus, UniProt P03355)", "T1 construct": "purchased Ambion, Inc", "experiment": "Reverse transcription reaction (RETROscript kit), dCTP[α-32P] incorporation", "assay_type": "biochemical", "conditions": "20 mM reducing reagent", "procedure": "as §1, §2"}, "[4]": {"system": "unknown RNase in psoralen biotin", "experiment": "Integrity of psoralen biotin labeled Millennium Markers after 37° C., 16 hours", "assay_type": "biochemical", "conditions": "5 mM DTT; 90° C. for 10 minutes; then 37° C. for 16 hours", "procedure": "The Millennium™ Markers (Ambion, Inc.) are a set of RNA size markers from 0.5 to 9 kb in length. They are used for determining the length of an unknown RNA. These markers were being labeled with biotin using a psoralen biotin labeling procedure so that they could be detected non-isotopically on a nylon membrane. However, if the Millennium™Markers were incubated at 37° C. for 16 hours after labeling with the psoralen biotin, they were degraded."}},
  "note": "Entries after “also recorded” stand apart in the source; their conditions may differ.",
  "data": [
    {"smiles": "O[C@H](CS)[C@H](O)CS", "note": "[DTT, dithiothreitol]", "values": [
      {"measurement": "concentration of RNase mixture completely inactivated", "setting": "[1]; 1 mM sodium citrate (pH 6.4), isotopic assay", "value": "up to 200 ng/ml"},
      {"measurement": "RNase inactivation in different buffers and solutions", "setting": "[1]; RNase mixture 200 ng/ml, 17 solutions, isotopic", "value": "inactivated RNase activity in all of buffers and solutions tested"},
      {"measurement": "inhibition of reverse transcription by AMV reverse transcriptase", "setting": "[2]", "value": "does not inhibit; also recorded: not inhibited"},
      {"measurement": "inhibition of reverse transcription by MMLV reverse transcriptase", "setting": "[3]", "value": "does not inhibit; also recorded: not inhibited"},
      {"measurement": "integrity of psoralen biotin labeled Millennium Markers", "setting": "[4]", "value": "remained intact"}
    ]}
  ]
}
